The source of these data is patent EP4741401A1, “BENZOTHIAZOIMIDAZOLYL COMPOUND AND USE THEREOF” (ER Stress Research Institute, Inc., priority 2023, dated 2025).

Experiment [1] relates to cell growth inhibition by endoplasmic reticulum stress. The note with it: from WO2019/131656A; read-out: 50% inhibitory concentration for cell growth inhibition by endoplasmic reticulum stress; cited from earlier work.
For a further experiment, the system named is 293A cells. Put plainly: Cytoprotection under endoplasmic reticulum stress conditions (Tm-induced cell death). In kind it is cell-based. The settings on record: compound concentration inhibiting Tm-induced cell death by 50%, Tm 0.2 µg/mL, reporter cells. How it is done: The reporter cells same as those used in Example 1 were placed in each well of a 96-well assay plate and were treated with Tm at a final concentration of 0.2 µg/mL and the test compound. […]

Experiment [2] concerns endoplasmic reticulum stress response induced by Tm. Briefly: Suppression of endoplasmic reticulum stress response (ERSE2-UPRE-AARE-EGFP reporter fluorescence). The note with it: 293A reporter cells, incubated at 37°C overnight, read-out: Suppression rank of endoplasmic reticulum stress response. In kind it is cell-based. How it is done:
A solution of the compound synthesized in "(1) Synthesis of benzothiazoimidazolyl compound" was appropriately diluted with a DMEM solution containing 10% fetal bovine serum (FBS), and the diluted solution was added to a 384-well assay plate at 10 µL/well. Next, 30 µL of a culture medium containing the reporter cells and 10 µL of the Tm solution were mixed, and the mixture was added to the 384-well assay plate at 40 µL/well such that the cell density was 18 × 10^3 cells/well, and the whole was incubated at 37°C overnight.
A multi-plate reader Citation 3 (Bio-Tek) was used to determine the EGFP fluorescence intensity (excitation wavelength: 485 nm, fluorescence wavelength: 528 nm) when the test compound was added. A smaller fluorescence intensity indicates more suppression of the increase in activity of the endoplasmic reticulum stress marker induced by Tm.
A "control" containing the Tm solution and, in place of the test compound solution, an equal volume of DMSO was subjected to the measurement of fluorescence intensity in a similar manner. In addition, a "background" containing a solution prepared in the same manner as for the Tm solution except that no Tm was added and containing, in place of the test compound solution, an equal volume of DMSO was subjected to the measurement of fluorescence intensity in a similar manner.
The fluorescence intensity was determined while the concentration of the test compound was varied, and the 50% effective concentration (IC50) of suppressing the endoplasmic reticulum stress response induced by Tm was calculated.

For experiment [3], the system named is endogenous molecular chaperones. Put plainly: Induction of endogenous molecular chaperones in cells. In kind it is cell-based. The note with it: applied to cells.
The test system of experiment [4] is Familial neurogenic diabetes insipidus model mice. Briefly: Suppression of urine output increase in FNDI model mice. In kind it is in vivo. The settings on record: oral, 30 mg/kg/day or 100 mg/kg/day, once daily for 28 days. How it is done: Familial neurogenic diabetes insipidus model mice created by Arima et al. at Nagoya University and carrying a knock-in mutation (Cys98stop) in the neurophysin II gene that causes familial neurogenic diabetes insipidus (FNDI) in humans (Am J Physiol Regul Integr Comp Physiol 2009 296:R1641-9) were divided into two groups. To each group, an IBT-30-containing preparation was forcibly administered orally such that the dosage of IBT-30 was 30 mg/kg/day or 100 mg/kg/day (n=6). The IBT-30-containing preparation was prepared as a suspension of IBT-30 at a final concentration of 0.5% by weight in carboxymethyl cellulose. The oral administration was performed once daily via a feeding tube for 28 days. The urine output was measured daily throughout the 28 days when IBT-30 was administered.

The test system of the next experiment is FNDI model mice. Briefly: Number of mutant protein aggregates (inclusion bodies) in vasopressin neurons of brain tissue. In kind it is in vivo. The note with it: oral, 100 mg/kg/day, once daily for 28 days, inclusion bodies of 4.5 µm or more in vasopressin neurons. The procedure:
To FNDI model mice, the above IBT-30-containing preparation was forcibly administered orally once daily for 28 days such that the dosage of IBT-30 was 100 mg/kg/day (n=6). In a similar manner, a vehicle preparation free from IBT-30 was forcibly administered orally (n=6). […]

On to `O=C(O)CCCc1ccccc1` [Compound 4-PBA, 4-phenylbutyric acid, reference compound], for which the IC50 in experiment [1] was 5.4 mM; in the experiment with 293A cells, 4000 µM.
On to `CS(=O)(=O)c1ccc2c(c1)sc1nc(-c3ccccc3)cn12` [IBT-21, reference compound], for which the results for the IC50 (in experiment [1]; in experiment [2]; in the experiment with 293A cells) were 0.00061 mM, 100 to 1000 nM and 0.61 µM, respectively.
Regarding `COc1cc(-c2cn3c(n2)sc2cc(S(C)(=O)=O)ccc23)ccc1C(F)(F)F` [IBT-30, 2-(3-Methoxy-4-(trifluoromethyl)phenyl)-7-(methylsulfonyl)benzo[d]imidazo[2,1-b]thiazole], the “induction of endogenous molecular chaperones” value in experiment [3] is “not induced”. Moreover, the urine output entry in experiment [4] was “decreases in a dose-dependent manner”. For the same compound, in the experiment on FNDI model mice, the “number of inclusion bodies (mutant protein aggregates)” value is “significantly reduced”. For the same compound, the IC50 is no more than 10 nM in experiment [2] and 0.004 µM in the experiment on 293A cells.
Turning to `C#CCCC1(CCOc2cc(-c3cn4c(n3)sc3cc(S(C)(=O)=O)ccc34)ccc2Cl)N=N1` [IBT-63, 2-(3-(2-(3-(but-3-yn-1-yl)-3H-diazirin-3-yl)ethoxy)-4-chlorophenyl)-7-(methylsulfonyl)benzo[d]imidazo[2,1-b]thiazole 2,2,2-trifluoroacetate], the IC50 in experiment [2] was 100 to 1000 nM; with 293A cells it was 0.35 µM.
As for `CCOc1ccc(-c2cn3c(n2)sc2cc(S(C)(=O)=O)ccc23)cc1` [IBT-64, 2-(4-ethoxyphenyl)-7-(methylsulfonyl)benzo[d]imidazo[2,1-b]thiazole], the IC50 is 100 to 1000 nM in experiment [2] and 0.67 µM in the experiment with 293A cells.
On to `CC(C)(C)OC(=O)NCCCOc1ccc(-c2cn3c(n2)sc2cc(S(C)(=O)=O)ccc23)cc1` [IBT-66, tert-butyl (3-(4-(7-(methylsulfonyl)benzo[d]imidazo[2,1-b]thiazol-2-yl)phenoxy)propyl)carbamate], for which the results for the IC50 (in experiment [2]; with 293A cells) were 100 to 1000 nM and 0.83 µM, respectively.
For `CCCc1ccc(-c2cn3c(n2)sc2cc(S(C)(=O)=O)ccc23)cc1` [IBT-67, 7-(methylsulfonyl)-2-(4-propylphenyl)benzo[d]imidazo[2,1-b]thiazole], in that order: 100 to 1000 nM and 0.37 µM.
`Cc1ccc2c(c1)sc1nc(-c3ccc(C(F)(F)F)cc3)cn12` [IBT-68, 7-methyl-2-(4-(trifluoromethyl)phenyl)benzo[d]imidazo[2,1-b]thiazole]: the IC50 was 10 to 100 nM in experiment [2] and 0.1 µM in the experiment with 293A cells.
Consider `C#CCCC1(CCOc2cccc(-c3cn4c(n3)sc3cc(S(C)(=O)=O)ccc34)c2)N=N1` [IBT-70, 2-(3-(2-(3-(but-3-yn-1-yl)-3H-diazirin-3-yl)ethoxy)phenyl)-7-(methylsulfonyl)benzo[d]imidazo[2,1-b]thiazole 2,2,2-trifluoroacetate], for which the IC50 in experiment [2] is 100 to 1000 nM; with 293A cells, 0.43 µM.
The matching figures for `FC(F)(F)c1ccc(-c2cn3c(n2)sc2c(Br)cccc23)cc1` [IBT-72, 8-bromo-2-(4-(trifluoromethyl)phenyl)benzo[d]imidazo[2,1-b]thiazole]: 100 to 1000 nM and 0.63 µM.
For the compound `C#CCCC1(CCNC(=O)CCc2cccc3c2sc2nc(-c4ccc(C(F)(F)F)cc4)cn23)N=N1` [IBT-73, N-(2-(3-(but-3-yn-1-yl)-3H-diazirin-3-yl)ethyl)-3-(2-(4-(trifluoromethyl)phenyl)benzo[d]imidazo[2,1-b]thiazol-8-yl)propanamide 2,2,2-trifluoroacetate], the figures for the IC50 (in experiment [2]; in the experiment on 293A cells) were greater than 1000 nM and 8.4 µM, respectively.
For the compound `CC(C)(C)OC(=O)NCCOCCNC(=O)CCc1cccc2c1sc1nc(-c3ccc(C(F)(F)F)cc3)cn12` [IBT-74, tert-butyl (2-(2-(3-(2-(4-(trifluoromethyl)phenyl)benzo[d]imidazo[2,1-b]thiazol-8-yl)propanamido)ethoxy)ethyl)carbamate], the IC50 in experiment [2] is greater than 1000 nM; with 293A cells, 3.7 µM.
In the case of `CC(C)(C)OC(=O)NCCOCCOCCOc1cccc(-c2cn3c(n2)sc2cc(S(C)(=O)=O)ccc23)c1` [IBT-76, tert-butyl (2-(2-(2-(3-(7-(methylsulfonyl)benzo[d]imidazo[2,1-b]thiazol-2-yl)phenoxy)ethoxy)ethoxy)ethyl)carbamate], the IC50 in experiment [2] was greater than 1000 nM; with 293A cells, 4.9 µM.
For the compound `C[C@H](CCC(=O)NCCS(=O)(=O)O)[C@H]1CC[C@H]2[C@@H]3[C@@H](O)C[C@@H]4C[C@H](O)CC[C@]4(C)[C@H]3CC[C@]12C` [TUDCA, tauroursodeoxycholic acid, reference compound], the IC50 in experiment [1] is 2.1 mM; in the experiment on 293A cells, 20 µM.
With `CCCC(=O)NCCc1csc(-c2ccc(Cl)cc2)n1` [azoramide], in experiment [1], the IC50 was 0.086 mM.
